Experiments:
mating in rats = experiment: In vivo effect on mating in rats (silastic wafer implant); design: species or system rat; conditions: 8 female rats
Protocol: Female rats showing at least 2 consecutive 4-day cycles were used. On the day of diestrus I, a silastic wafer, was inserted under the dorsal skin of each rat. The wafer, about 25 mm in diameter and 1 mm thick, was prepared by polymerizing 0.5 g of Corning medical grade Silastic 382 with 75 mg 4-acetate-4-A, using stannous octoate catalyst. Each female was housed with 2 fertile males until mating occurred. Control animals were treated with same except that 4-acetate-4-A was omitted from the wafer.

estrogen biosynthesis [1] = experiment: In vivo inhibition of estrogen biosynthesis; design: species or system rat
[2] = Release of compound from skin implant in rat studies; type: in vivo
[3] = test system: implantation in mated rats; experiment: In vivo effect on implantation in mated rats; design: species or system rat; conditions: 7 mated rats; 100 mg/kg daily by injection from Day 2 of pregnancy
Protocol: Injections of 4-acetate-4-A in a suspending vehicle were begun at 0800 hr on Day 2 of pregnancy, and repeated thereafter at […], and at 2400 hr as 2/6 daily dose. The daily does was 100 mg of 4-acetate-4-A per kg of body weight. Control animals were treated the same except that only the suspending vehicle was injected.

[4] = test system: Estrogen-dependent mammary tumors; experiment: In vivo effect on DMBA-induced estrogen-dependent mammary tumors in rats; design: species or system rat; conditions: after 4 weeks, wafer with 150 mg plus sc 2.5 mg/100 g twice daily
Protocol: Estrogen-dependent mammary tumors where induced in rats with DMBA. Prior to treatment the 7 sample group rats had 23 tumors; the 6 control group rats had 17 tumors. During the initial treatment period the number of tumors increased to 28 for the sample group, 24 for the control group.
The sample group was treated with implanted wafers containing 0.5 g silastic and 150 mg 4-acetate-4-A. The sample group was also treated twice daily for 4 weeks with sc injections of 4-acetate-4-A (2.5 mg/100 g animal) in a suspending vehicle. The control was treated the same except that 4-acetate-4-A was omitted from the wafers and the injection.

estrogen biosynthesis [5] = conditions: Endocrinology 92, 866 (1973); Endocrinology 100, 1684 (1977); cited from earlier work
estrogen biosynthesis [6] = experiment: In vitro inhibition of estrogen biosynthesis; type: biochemical
[7] = Polarity by thin layer chromatography; type: physicochemical; conditions: compared with 4-acetate-4-A

CC(=O)OC1=C2CCC3C4CCC(=O)C4(C)CCC3C2(C)CCC1=O (stereo not shown) [4-acetate-4-A]
Number of animals mating on a given day: 1st (mating in rats; 1st day, silastic wafer with 75 mg 4-acetate-4-A under dorsal skin): 0 | Number of animals mating on a given day: 6th (mating in rats; 6th day, silastic wafer with 75 mg): 2 | Number of animals mating on a given day: 7th (mating in rats; 7th day, silastic wafer with 75 mg): 2 | Number of animals mating on a given day: 15th day (mating in rats; 15th day, silastic wafer with 75 mg): 3 | Number of animals mating on a given day: 2d (mating in rats; 2d day, silastic wafer with 75 mg): 1 | ovarian estrogen secretion (estrogen biosynthesis [1]; in vivo rat studies): lower ovarian estrogen secretion | diffusion / release from skin implant [2]: continuous, uniform release | Animals without implants [3]: 4 | Average number of normal-sized implants/animal [3]: 1.7 | Average number of small (<2.4 mm) implants/animal [3]: 1.4 | Number of animals affected by treatment [3]: 7 | tumors completely regressed [4]: 64% | tumors regressed to less than 1/2 their pretreatment size ([4]; in addition to those completely regressed): 32%

C[C@]12CCC(=O)C=C1C(=O)C[C@@H]1[C@@H]2CC[C@]2(C)C(=O)CC[C@@H]12 (stereo in doubt) [4-androstene-3,6,17-trione]
inhibition of estrogen biosynthesis (literature) (estrogen biosynthesis [5]): effective inhibitors of estrogen biosynthesis

C[C@]12CC[C@H]3[C@@H](CCC4=CC(=O)CC[C@@H]43)[C@@H]1CCC2=O [4-estrene-3,17-dione]
inhibition of estrogen biosynthesis (literature) (estrogen biosynthesis [5]): effective inhibitors of estrogen biosynthesis

CCCCCCC(=O)OC1=C2CCC3C4CCC(=O)C4(C)CCC3C2(C)CCC1=O (stereo not shown) [4-heptanoate-4-A]
ability to inhibit estrogen biosynthesis (in vitro) (estrogen biosynthesis [6]): This expectation has been borne out

CC12CCC3C(CCC4=C(OC(=O)CCC(=O)O)C(=O)CCC43C)C1CCC2=O (stereo not shown) [4-hemisuccinate-4-A]
ability to inhibit estrogen biosynthesis (in vitro) (estrogen biosynthesis [6]): marked ability to inhibit estrogen biosynthesis | ability to inhibit estrogen biosynthesis (in vivo) (estrogen biosynthesis [1]; in vivo): marked ability to inhibit estrogen biosynthesis

C[C@]12CCC(=O)C(O)=C1CC[C@@H]1[C@@H]2CC[C@]2(C)C(=O)CC[C@@H]12 [4-OH-4-A, 4-hydroxy-4-androstene-3,17-dione]
polarity (thin layer chromatography) [7]: less polar than 4-acetate-4-A | diffusion / release from skin implant [2]: does not diffuse as well from the implant | inhibition of estrogen biosynthesis (literature) (estrogen biosynthesis [5]): effective inhibitor of estrogen biosynthesis

C[C@]12C=CC(=O)C=C1C=C[C@@H]1[C@@H]2CC[C@]2(C)C(=O)CC[C@@H]12 [1,4,6-androstatriene-3,17-dione]
inhibition of estrogen biosynthesis (literature) (estrogen biosynthesis [5]): effective inhibitors of estrogen biosynthesis

From patent US4235893A, “Ester derivatives of 4-hydroxy-4-androstene-3,17-dione and a method for inhibiting estrogen biosynthesis” (priority 1978, dated 1980)
